Data as given in patent US9505709B2, “Compositions and methods relating to ionic salts of peptides” (Thetis Pharmaceuticals LLC, priority 2014, dated 2016).

What was measured:
Balb/C mice = assay: Ocular irritation after topical dosing to the cornea (hyperemia, squinting, discharge, lid swelling); assay type: in vivo; conditions: for Hyperemia: 3 μL drop in each eye four times daily for 3 days
Procedure: In an embodiment where the ophthalmic formulation is an aqueous formulation, it has been determined in mice that certain formulations can be administered to the surface of the eye without producing irritation that would make them unsuitable for such application. Irritation parameters of TP-211-1, TP-212-1, TP-311-1 and TP-312-1 related to hyperemia, squinting, and discharge were determined in Balb/C mice. Mice were dosed topically to the cornea using a calibrated micropipette, with a 3 μL drop of treatment in each eye four times daily for 3 consecutive days at various concentrations.
TP-211-1 is Lysyl-lysine EPA. TP-212-1 is Lysyl-lysine bis-EPA. TP-311-1 is Lysyl-lysine DHA. TP-312-1 is Lysyl-lysine bis-DHA. The study drugs were prepared using phosphate buffered saline (PBS) to reach target concentrations ranging from 0.1% to 1.0%.
The animals were monitored for scratching at the eye or any other abnormal behavior post-dose. Ocular exams were conducted on Days 1 and 3 with use of a Micron III camera system to take high resolution videos of the right eye of each animal Clinical signs including but not limited to hyperemia, discharge, lid swelling, and squinting were evaluated by trained personnel who was masked as to group assignment. Each clinical sign was graded on a scale of 0-4, with the exception of lid swelling which was graded on a scale of 0-2. Scores were averaged and are expressed as the mean±SEM for each group. Statistical significance was assessed between the treatment arms and the vehicle group. Any significance is noted by asterisks (*=p<0.05, **=p<0.01, ***=p<0.001).

[1] = Stability analysis by 1H NMR of samples exposed to air and light; conditions: ambient temperature
Procedure: Stability analysis was performed using 1H NMR (400 MHz) with acetic acid-d4 at various time point (typically days 1, 14, 30 and 60) using samples exposed to air and light at ambient temperature (clear vials with no caps).

[2] = Intravenous injection pharmacokinetics, plasma free EPA or free DHA; assay type: in vivo, Sprague-Dawley rats; conditions: rat
Procedure: Experiments via Intravenous Injection: TP-212 and TP-312 were administered by intravenous injection (20 mg/kg) to Sprague-Dawley rats (n=6/group—3 male and 3 female), and plasma was obtained from serial blood samples taken from each animal at scheduled times ([…]). Blood samples were centrifuged to separate red blood cells and the resulting plasma samples were analyzed for free EPA or free DHA. Free EPA or free DHA was extracted from rat plasma with hexane at acidic condition without hydrolysis. Detection was by MS-MS monitoring of negative ion for EPA or DHA. Calculated pharmacokinetic values are mean values from 6 rats for each study drug.
(§1) For all figures and tables, the data are adjusted as follows for comparative purposes. First, the actual plasma levels are baseline adjusted. Thus, for each study arm, the pre-dose level (time=0) is subtracted from the actual plasma levels at each time point, with negative values adjusted to zero. Second, these baseline adjusted values are further adjusted to be molar dose equivalent on a comparative basis among the study arms with respect to EPA or DHA payload (i.e., as if equal amounts of free fatty acid EPA or DHA are administered in each study arm).

[3] = Oral pharmacokinetics (oral gavage), plasma free EPA or free DHA; assay type: in vivo, Sprague-Dawley rats; conditions: rat
Procedure: Experiments via Oral Gavage: Oral pharmacokinetic parameters of TP-212 (Lysyl-Lysine Bis-EPA), TP-312 (Lysyl-Lysine Bis-DHA), EPA-EE, EPA FFA and DHA FFA were determined in Sprague-Dawley rats. EPA-EE is 97% pure ethyl ester form of eicosapentaenoic acid. It is the principal polyunsaturated fatty acid in Vascepa, an Omega-3 compound approved in the U.S. for the treatment of severe hypertriglyceridemia. EPA FFA is 97% pure free fatty acid form of eicosapentaenoic acid and DHA FFA is 98% pure free fatty acid DHA. EPA FFA and DHA FFA are the two principal poly-unsaturated fatty acids in Epanova, an Omega-3 compound approved in the U.S. for the treatment of severe hypertriglyceridemia. The subject drugs were administered by oral gavage as an aqueous solution in de-ionized water to 6 Sprague-Dawley rats per group (3 males and 3 females). Rats were dosed at 40 mg/kg. Blood samples were obtained from each rat by jugular vein catheter. Samples were collected at pre-dose and at 0.25, 0.5, 1, 2, 4, 8, 12 and 18 hours post dose. Blood samples were centrifuged to separate red blood cells and the resulting plasma samples were analyzed for free EPA or free DHA. Free EPA or […] extracted from rat plasma with hexane at acidic condition without hydrolysis. Detection was by MS-MS monitoring of negative ion for EPA or DHA. Calculated pharmacokinetic values are mean values from 6 rats for each study drug.
as §1

[4] = intravenous injection 20 mg/kg, molar dose equivalent, baseline adjusted
[5] = oral gavage 40 mg/kg, molar dose equivalent, baseline adjusted

CC/C=C\C/C=C\C/C=C\C/C=C\C/C=C\C/C=C\CCC(=O)O.CC/C=C\C/C=C\C/C=C\C/C=C\C/C=C\C/C=C\CCC(=O)O.NCCCC[C@H](NC(=O)[C@@H](N)CCCCN)C(=O)O [Compound 4, (L,L) Lysyl-lysine bis DHA]
Hyperemia (Balb/C mice; 0.1% concentration in PBS): did not cause any significant increase in hyperemia after the first dose | Hyperemia (Balb/C mice; 0.5% concentration in PBS): some initial hyperemia after the first dose | Hyperemia (Balb/C mice; 1.0% concentration in PBS): some initial hyperemia after the first dose | Squinting (Balb/C mice; all concentrations tested, topical to cornea): none of the concentrations caused squinting throughout the study | Hyperemia at last dose / final evaluation (Balb/C mice; concentrations that showed an initial increase or all tested, last dose / final evaluation (Day 3)): remained at baseline levels of hyperemia by the last dose of the day | Concentration at which not irritating / well tolerated (Balb/C mice; topical to cornea four times daily for 3 days): less than 1.0% | Stability by NMR (amount of sample remaining relative to original sample) ([1]; Day 3): 1 (1 = >95%) | Stability by NMR (amount of sample remaining relative to original sample) ([1]; Day 14): 1 (1 = >95%) | Stability by NMR (amount of sample remaining relative to original sample) ([1]; Day 30): 1 (1 = >95%) | Stability by NMR (amount of sample remaining relative to original sample) ([1]; Day 60): 1 (1 = >95%) | Tmax (free DHA) ([2]; intravenous injection 20 mg/kg): 1 min | Plasma level of free DHA ([2]; intravenous injection 20 mg/kg, 1 min, molar dose equivalent, baseline adjusted): 66.4 µg/mL | Plasma level of free DHA ([2]; intravenous injection 20 mg/kg, 5 min, molar dose equivalent, baseline adjusted): 15.1 µg/mL | Plasma level of free DHA ([2]; intravenous injection 20 mg/kg, 10 min, molar dose equivalent, baseline adjusted): 16.6 µg/mL | Plasma level of free DHA ([2]; intravenous injection 20 mg/kg, 15 min, molar dose equivalent, baseline adjusted): 17.5 µg/mL | Plasma level of free DHA ([2]; intravenous injection 20 mg/kg, 30 min, molar dose equivalent, baseline adjusted): 16.4 µg/mL | Plasma level of free DHA ([2]; intravenous injection 20 mg/kg, 60 min, molar dose equivalent, baseline adjusted): 12.9 µg/mL | Plasma level of free DHA ([2]; intravenous injection 20 mg/kg, 120 min, molar dose equivalent, baseline adjusted): 8.5 µg/mL | Plasma level of free DHA ([2]; intravenous injection 20 mg/kg, 240 min, molar dose equivalent, baseline adjusted): 7.8 µg/mL | Plasma level of free DHA ([2]; intravenous injection 20 mg/kg, first line (time printed as dash, pre-dose), molar dose equivalent, baseline adjusted): 0.0 µg/mL | AUC 0-1 hrs (free DHA) [2, 4]: 16.3 µg·h/mL | AUC 0-4 hrs (free DHA) [2, 4]: 43.3 µg·h/mL | Cmax (free DHA) [2, 4]: 66.4 µg/mL | AUC over 1 hour (free DHA), times greater than DHApo ([2]; intravenous vs oral gavage): ~14.7 times | AUC over 1 hour (free DHA), times greater than TP-312po ([2]; intravenous vs oral gavage): approximately 4.9 times | AUC over 4 hours (free DHA), times greater than DHApo ([2]; intravenous vs oral gavage): ~5.0 times | AUC over 4 hours (free DHA), times greater than TP-312po ([2]; intravenous vs oral gavage): approximately 1.6 times | Cmax (free DHA), times greater than DHApo ([2]; intravenous vs oral gavage): ~19.3 times | Cmax (free DHA), times greater than TP-312po ([2]; intravenous vs oral gavage): approximately 6.4 times | Tmax (free DHA) ([3]; oral gavage 40 mg/kg): 2 h | Plasma level of free DHA ([3]; oral gavage 40 mg/kg, 0 h (pre-dose), molar dose equivalent, baseline adjusted): 0.0 µg/mL | Plasma level of free DHA ([3]; oral gavage 40 mg/kg, 0.25 h (15 min), molar dose equivalent, baseline adjusted): 0.0 µg/mL | Plasma level of free DHA ([3]; oral gavage 40 mg/kg, 0.5 h (30 min), molar dose equivalent, baseline adjusted): 4.6 µg/mL | Plasma level of free DHA ([3]; oral gavage 40 mg/kg, 1 h (60 min), molar dose equivalent, baseline adjusted): 6.3 µg/mL | Plasma level of free DHA ([3]; oral gavage 40 mg/kg, 2 h (120 min), molar dose equivalent, baseline adjusted): 10.4 µg/mL | Plasma level of free DHA ([3]; oral gavage 40 mg/kg, 4 h (240 min), molar dose equivalent, baseline adjusted): 5.6 µg/mL | Plasma level of free DHA ([3]; oral gavage 40 mg/kg, 8 h, molar dose equivalent, baseline adjusted): 1.4 µg/mL | Plasma level of free DHA ([3]; oral gavage 40 mg/kg, 12 h, molar dose equivalent, baseline adjusted): 0.0 µg/mL | Plasma level of free DHA ([3]; oral gavage 40 mg/kg, 18 h, molar dose equivalent, baseline adjusted): 0.0 µg/mL | AUC 0-1 hrs (free DHA) [3, 5]: 3.3 µg·h/mL | AUC 0-4 hrs (free DHA) [3, 5]: 27.6 µg·h/mL | AUC 0-18 hrs (free DHA) [3, 5]: 44.4 µg·h/mL | Cmax (free DHA) [3, 5]: 10.4 µg/mL | AUC over 18 hours (free DHA), times greater than DHA-FFA ([3]; oral gavage): approximately 1.2 times | Cmax (free DHA), times greater than DHA-FFA ([3]; oral gavage): approximately 3.0 times
